We go through four compounds from US20110046381A1, “NOVEL 4-{3-[4-(3-{4-[AMINO (BUTOXYCARBONYLIMINO) METHYL] PHENOXY} PROPYL)-1-PIPERIDINYL] PROPOXY]-N'-(BUTOXYCARBONYL) BENZAMIDINE CRYSTALS” (Toyama Chemical Co., Ltd., priority 2007, published 2011).

Series [1] in a line: Tapped density (Test Example 1). It counts as physicochemical. Conditions: sieved 18 mesh, tapped 180 times, W/V1. The procedure:
The test materials passed through a sieve (18 mesh) were filled into a measuring cylinder and the weight W(g) of the filled test materials was measured. Next, the measuring cylinder containing the test materials was mechanically tapped 180 times by a powder characteristic measuring device (a powder tester PT-E, Hosokawa Micron Corporation). After tapping, the volume V1 (mL) of the tapped test materials was measured. By the following formula, the tapped density (g/mL) was calculated. Tapped density (g/mL)=W/V1

A short description of series [2]: Surface potential after corona discharge (Test Example 2). It counts as physicochemical. Particulars: 25° C., 50% RH; corona discharge −4 kV for 2 minutes. As to the method:
The following test was conducted in a thermo-hygrostat (25° C., 50% RH). The test materials were set in a sample plate (SUS304, the surface was ground by a buff400, the volume: about 6 mL, the depth: 3 mm, cylindrical, the upper aspect was opened), and was charged by corona discharge (the corona voltage: −4 kV) from an impressed voltage device for 2 minutes (the distance between the impressed voltage device and the sample plate: 30 mm). After charging, the surface potential of the test materials was measured (the distance between the sensor and the sample: 5 mm). Thermo-hygrostat: KCL-2000, EYELA CORPORATION Surface potential measurement device: SK-200, KEYENCE CORPORATION Impressed voltage device: SJ-G036, KEYENCE CORPORATION Data logger: AD-DIO Card Bus, Interface Corporation

Series [3] in a line: Sticking test, scraper pressure of tablets (Test Example 3). It counts as physicochemical. Conditions: tablets containing 200 mg, diameter 8.5 mm, loading pressure 10 kN. As to the method: Tablets (flat-shaped, the diameter 8.5 mm) containing 200 mg of the test materials were prepared by using a tableting process analyzer (Tab Flex TAB-10, OKADA SEIKO CO., LTD.) (the loading pressure: 10 kN). Next, the scraper pressure was measured when the tablets were pushed out by a scraper.

Series [4] in a line: Adhesion test to a metal cup (Test Example 4). It counts as physicochemical. Conditions: 5 g test material in SUS304 metal cup, weight adhering after turning over the cup. The procedure:
5 g of the test materials passed through a sieve (18 mesh) are filled in a metal cup (SUS304, the internal diameter: 65 mm, the volume: about 200 mL), and then the test materials were removed by turning over the cup. The weight of the test materials adhering on the surface of the cup was measured.

Series [5] is described as follows: Compression moldability test, tablet hardness (Test Example 5). It counts as physicochemical. Particulars: 200 mg tablets. As to the method: Tablets (flat-shaped, the diameter: 8.5 mm) containing 200 mg of the test materials were prepared by using a tableting process analyzer (Tab Flex TAB-10, OKADA SEIKO CO., LTD.) (The loading pressure: 5 and 10 kN). Next, the breaking strength of the tablets was measured by a tablet hardness tester (PC-30, OKADA SEIKO CO., LTD.).

Series [6] concerns Candida albicans TIMM1623. In words: Mouse Candida infection model test, oral administration (Test Example 6). It counts as in vivo. Conditions: immunosuppressed mice, i.v. infection about 3×10^4 CFU/mouse; 1 mg/kg orally once daily for 4 days; observed for 14 days; 5 mice/group. The procedure:
Candida albicans TIMM1623, which was obtained from overnight cultures grown on Sabouraud dextrose agar (SDA) plates at 35° C., was suspended in sterile physiological saline, then diluted to prepare a suspension of inoculum organism.
Transient immunosuppression in mice (four-week-old, 5 mice/group) was induced by intraperitoneal treatment with 200 mg/kg cyclophosphamide 4 days before the infection and with 100 mg/kg cyclophosphamide 1 day after the infection. Infection was induced by the intravenous inoculation of 0.2 mL of the cell suspension of Candida albicans TIMM1623 (about 3×10^4 CFU/mouse) via the lateral tail vein. The test compound was dissolved in 0.1 mol/L hydrochloric acid, diluted by sterilized water and orally administered at 1 mg/kg of mouse body weight. The therapy was started at 2 hours after infection and carried out once daily for 4 days. The equivalent amount of sterilized physiological saline was administered to the group to which no test compound was administered. The survival number of mice was observed and recorded for 14 days.

In series [1], `CCCCOC(=O)N=C(N)c1ccc(OCCCC2CCN(CCCOc3ccc(C(N)=NC(=O)OCCCC)cc3)CC2)cc1` [Type I crystal, 4-{3-[4-(3-{4-[amino(butoxycarbonylimino)methyl]phenoxy}propyl)-1-piperidinyl]propoxy}-N′-(butoxycarbonyl)benzamidine] registered a Tapped density of 0.22 g/mL. In series [2], the Surface potential was −2.3 kV. The same compound registered a Scraper pressure in series [3] of 7.2 kN. This compound registered an Adhering amount in series [4] of 70 mg. The Hardness in series [5] (Loading pressure 5 kN) stood at 56 N; in series [5] (Loading pressure 10 kN), 57 N. In addition, the mice survived in series [6] is listed as 80%.
In series [1], `CCCCOC(=O)N=C(N)c1ccc(OCCCC2CCN(CCCOc3ccc(C(N)=NC(=O)OCCCC)cc3)CC2)cc1` [Type III crystal, 4-{3-[4-(3-{4-[amino(butoxycarbonylimino)methyl]phenoxy}propyl)-1-piperidinyl]propoxy}-N′-(butoxycarbonyl)benzamidine] displayed a Tapped density of 0.45 g/mL. The Surface potential in series [2] is −1.9 kV. In series [3], the Scraper pressure was determined as 1.9 kN. For the same compound, the Adhering amount in series [4] is reported as 22 mg. Besides, the values for the Hardness in series [5] (Loading pressure 5 kN) and in series [5] (Loading pressure 10 kN) were 66 N and 95 N, respectively. Moreover, in series [6], the mice survived was found to be 80%.
Turning to `CCCCOC(=O)N=C(N)c1ccc(OCCCC2CCN(CCCOc3ccc(C(N)=NC(=O)OCCCC)cc3)CC2)cc1` [Type IV crystal, 4-{3-[4-(3-{4-[amino(butoxycarbonylimino)methyl]phenoxy}propyl)-1-piperidinyl]propoxy}-N′-(butoxycarbonyl)benzamidine], the Tapped density in series [1] was 0.47 g/mL. Further, in series [2], the Surface potential was −1.3 kV. The same compound showed a Scraper pressure in series [3] of 2.9 kN. The compound further came in with an Adhering amount in series [4] of 40 mg. The same compound registered a mice survived in series [6] of 80%.
Regarding `CCCCOC(=O)N=C(N)c1ccc(OCCCC2CCN(CCCOc3ccc(C(N)=NC(=O)OCCCC)cc3)CC2)cc1` [Type II crystal, 4-{3-[4-(3-{4-[amino(butoxycarbonylimino)methyl]phenoxy}propyl)-1-piperidinyl]propoxy}-N′-(butoxycarbonyl)benzamidine], in series [1], the Tapped density was 0.40 g/mL. This compound showed a Scraper pressure in series [3] of 2.9 kN. Besides, the Adhering amount in series [4] is 17 mg. For the same compound, the figures for the Hardness in series [5] (Loading pressure 5 kN) and in series [5] (Loading pressure 10 kN) were 63 N and 94 N, respectively. This compound also returned a mice survived in series [6] of 80%.
